Laboratory results from patent publication US20210246115A1 (Bioimics AB, priority 2017, published 2021).
≈ marks a conversion by molar mass, not a printed value. Where a name gives a salt, the structure may show the parent alone.

What was measured:
[1] = test system: E. coli RNase P RNA, M1 RNA; test: Inhibition of bacterial RNase P activity, IC50 determination (cleavage of pATSerUG by M1 RNA); format: biochemical; conditions: NI: No inhibition
[2] = test system: Staphylococcus aureus (ATCC25923); test: MIC, broth microdilution (CLSI), Staphylococcus aureus ATCC25923; conditions: Staphylococcus aureus, ATCC25923, read-out: S. aureus ATCC 25923 MIC
[3] = test system: Escherichia coli (ATCC25922); test: MIC, broth microdilution (CLSI), Escherichia coli; conditions: Escherichia coli, ATCC25922, read-out: E. coli ATCC 25922 MIC, Table XIII

| Structure (SMILES) | IC50 [1] | MIC [2] | MIC [3] |
| --- | --- | --- | --- |
| O=C(CC(c1cn(CC2CCCCC2)c2ccccc12)C1CCNCC1)NC1CCNCC1 (stereo not drawn) [Compound 106, 3-(1-(cyclohexylmethyl)-1H-indol-3-yl)-N,3-di(piperidin-4-yl)propanamide hydrochloride salt] | 1220 µM | 512 µg/mL | 512 µg/mL |
| Cl.O=C(Cc1cn(CC2CCC(F)(F)CC2)c2ccc(Br)cc12)NC1CCNCC1 [Compound 277, 2-(5-bromo-1-((4,4-difluorocyclohexyl)methyl)-1H-indol-3-yl)-N-(piperidin-4-yl)acetamide hydrochloride salt] | 229 µM | 65 µg/mL | 129 µg/mL |
| Cl.N[C@H]1CC[C@H](NC(=O)CCc2cn(CC3CCCCC3)c3ccc(-c4cccc(OC(F)(F)F)c4)cc23)CC1 [Compound 213, N-((1R,4R)-4-aminocyclohexyl)-3-(1-(cyclohexylmethyl)-5-(3-(trifluoromethoxy)phenyl)-1H-indol-3-yl) propanamide hydrochloride salt] | 3 µM | 18 µg/mL | 296 µg/mL |
| N[C@H]1CC[C@H](CN2CCC(c3cn(CC4CCCCC4)c4ccccc34)CC2)CC1 [Compound 217, (1R,4R)-4-((4-(1-(cyclohexylmethyl)-1H-indol-3-yl)piperidin-1-yl)methyl)cyclohexan-1-amine hydrochloride salt] | 133 µM | 8 µg/mL | 31 µg/mL |
| Cc1cccc(C(CCN[C@H]2CC[C@H](O)CC2)c2cn(CC3CCCCC3)c3ccccc23)c1.Cl (stereo partly drawn) [Compound 218, (1R,4R)-4-((3-(1-(cyclohexylmethyl)-1H-indol-3-yl)-3-(m-tolyl)propyl)amino) cyclohexan-1-ol hydrochloride salt] | 45 µM | 8 µg/mL | > 512 µg/mL |
| Cc1cccc(C(CC(=O)NCC2CNCCO2)c2cn(CC3CCCCC3)c3ccccc23)c1.Cl (stereo not drawn) [Compound 280, 3-(1-(cyclohexylmethyl)-1H-indol-3-yl)-N-(morpholin-2-ylmethyl)-3-(m-tolyl)propanamide hydrochloride salt] | 103 µM | 16 µg/mL | 131 µg/mL |
| Cl.N[C@H]1CC[C@H](NC(=O)CC(c2cc(Cl)cc(Cl)c2)c2cn(CC3CCCCC3)c3ccccc23)CC1 (stereo partly drawn) [Compound 136, N-((1r,4r)-4-aminocyclohexyl)-3-(1-(cyclohexylmethyl)-1H-indol-3-yl)-3-(3,5-dichlorophenyl) propanamide hydrochloride salt] | 9 µM | 64 µg/mL | > 512 µg/mL |
| Cc1cccc(C(CC(=O)N[C@H]2CC[C@H](N)CC2)c2cn(C(C)C3CCCCC3)c3ccccc23)c1.Cl (stereo partly drawn) [Compound 299, N-((1r,4r)-4-aminocyclohexyl)-3-(1-(1-cyclohexylethyl)-1H-indol-3-yl)-3-(m-tolyl)propanamide hydrochloride salt] | 32 µM | 8 µg/mL | 134 µg/mL |
| Cc1cccc(C(CC(=O)NC2CCNCC2)c2cn(CC3CCC(F)(F)CC3)c3ccccc23)c1.Cl (stereo not drawn) [Compound 282, 3-(1-((4,4-difluorocyclohexyl)methyl)-1H-indol-3-yl)-N-(piperidin-4-yl)-3-(m-tolyl)propanamide hydrochloride salt] | 71 µM | 34 µg/mL | 136 µg/mL |
| NC1CCC(NCCCc2cn(CC3CCCCC3)c3ccc(-c4cccc(OC(F)(F)F)c4)cc23)CC1 [Compound 242, (1S,4S)-N1-(3-(1-(cyclohexylmethyl)-5-(3-(trifluoromethoxy)phenyl)-1H-indol-3-yl)propyl)cyclohexane-1,4-diamine hydrochloride salt] | 6.6 µM | 2 µg/mL | 5 µg/mL |
| Cl.N[C@H]1CC[C@H](NC(=O)CC(c2cccc(Cl)c2)c2cn(CC3CCCCC3)c3ccccc23)CC1 (stereo partly drawn) [Compound 135, N-((1r,4r)-4-aminocyclohexyl)-3-(3-chlorophenyl)-3-(1-(cyclohexylmethyl)-1H-indol-3-yl)propanamide hydrochloride salt] | 8 µM | 4 µg/mL | 256 µg/mL |
| COc1ccc2c(c1)c(C(CC(=O)NC1CCC(N)CC1)c1cccc(C)c1)cn2CC1CCCCC1.Cl [Compound 151, N-((1S,4S)-4-aminocyclohexyl)-3-(1-(cyclohexylmethyl)-5-methoxy-1H-indol-3-yl)-3-(m-tolyl)propanamide hydrochloride salt] | 45 µM | 16 µg/mL | 128 µg/mL |
| CC(C)c1cccc(C(CC(=O)N[C@H]2CC[C@H](N)CC2)c2cn(CC3CCCCC3)c3ccccc23)c1.Cl (stereo partly drawn) [Compound 198, N-((1R,4R)-4-aminocyclohexyl)-3-(1-(cyclohexylmethyl)-1H-indol-3-yl)-3-(3-isopropylphenyl) propanamide hydrochloride salt] | 12.7 µM | 17 µg/mL | > 512 µg/mL |
| Cc1cccc(C(CC(=O)N[C@H]2CC[C@@H](N)CC2)c2cn(Cc3ccccc3)c3ncccc23)c1.Cl (stereo partly drawn) [Compound 41, N-((1s,4s)-4-aminocyclohexyl)-3-(1-benzyl-1H-pyrrolo[2,3-b]pyridin-3-yl)-3-(m-tolyl)propanamide hydrochloride salt] | 980 µM | 258 µg/mL | > 512 µg/mL |
| Cc1cccc(C(CC(=O)N[C@H]2CC[C@H](N)CC2)c2cn(CC3CCCCC3)c3ccc(Br)cc23)c1.Cl (stereo partly drawn) [Compound 126, N-((1R,4R)-4-aminocyclohexyl)-3-(5-bromo-1-(cyclohexylmethyl)-1H-indol-3-yl)-3-(m-tolyl)propanamide hydrochloride salt] | 5.8 µM | 4 µg/mL | > 512 µg/mL |
| Cc1cccc(C(CC(=O)N[C@H]2CC[C@H](CN)CC2)c2cn(CC3CCCCC3)c3ccc(Br)cc23)c1.Cl (stereo partly drawn) [Compound 206, N-((1R,4R)-4-(aminomethyl)cyclohexyl)-3-(5-bromo-1-(cyclohexylmethyl)-1H-indol-3-yl)-3-(m-tolyl)propanamide hydrochloride salt] | 23 µM | 19 µg/mL | > 512 µg/mL |
| Cc1ccccc1-c1ccc2c(c1)c(CC(=O)NC1CCC(N)CC1)cn2CC1CCCCC1.Cl [Compound 235, N-((1S,4S)-4-aminocyclohexyl)-2-(1-(cyclohexylmethyl)-5-(o-tolyl)-1H-indol-3-yl)acetamide hydrochloride salt] | 12 µM | 8 µg/mL | 126 µg/mL |
| CCOP(=O)(NC1CCC(NC(=O)CC(c2cccc(C)c2)c2cn(CC3CCCCC3)c3ccccc23)CC1)OCC (stereo not drawn) [Compound 226, diethyl ((1s,4s)-4-(3-(1-(cyclohexylmethyl)-1H-indol-3-yl)-3-(m-tolyl)propanamido)cyclohexyl) phosphoramidate] | 28.5 µM | 311 µg/mL (≈ 512 µM) | > 512 µg/mL |
| Cc1cccc(C(CC(=O)N[C@H]2CC[C@H](N)CC2)c2cn(CC3CCCC3)c3ccccc23)c1.Cl (stereo partly drawn) [Compound 111, N-((1R,4R)-4-aminocyclohexyl)-3-(1-(cyclopentylmethyl)-1H-indol-3-yl)-3-(m-tolyl)propanamide hydrochloride salt] | 6.8 µM | 4 µg/mL | 32 µg/mL |
| Cc1cccc(C(CC(=O)N[C@H]2CC[C@H](N)CC2)c2cn(CC3CCCCC3)c3ccc(-c4ccccc4Cl)cc23)c1.Cl (stereo partly drawn) [Compound 205, N-((1R,4R)-4-aminocyclohexyl)-3-(5-(2-chlorophenyl)-1-(cyclohexylmethyl)-1H-indol-3-yl)-3-(m-tolyl)propanamide hydrochloride salt] | 3.2 µM | 158 µg/mL | > 512 µg/mL |
| Cl.N[C@H]1CC[C@H](NC(=O)c2cn(CC3CCCCC3)c3ccc(Br)cc23)CC1 [Compound 268, N-((1R,4R)-4-aminocyclohexyl)-5-bromo-1-(cyclohexylmethyl)-1H-indole-3-carboxamide hydrochloride salt] | 59 µM | 15 µg/mL | 30 µg/mL |
| NC1CCC(NCCc2cn(CC3CCCCC3)c3ccc(-c4ccccc4OC(F)(F)F)cc23)CC1 [Compound 241, (1S,4S)-N1-(2-(1-(cyclohexylmethyl)-5-(2-(trifluoromethoxy)phenyl)-1H-indol-3-yl)ethyl)cyclohexane-1,4-diamine hydrochloride salt] | 25 µM | 2 µg/mL | 5 µg/mL |
| Cc1cccc(C(CC(=O)NC2CCNCC2)c2cn(CC3CCCC3)c3ccccc23)c1.Cl (stereo not drawn) [Compound 112, 3-(1-(cyclopentylmethyl)-1H-indol-3-yl)-N-(piperidin-4-yl)-3-(m-tolyl)propanamide hydrochloride salt] | 68 µM | 16 µg/mL | 64 µg/mL |
| COc1cccc(C(CC(=O)N[C@H]2CC[C@@H](N)CC2)c2cn(Cc3ccccc3)c3ccccc23)c1.Cl (stereo partly drawn) [Compound 66, N-((1S,4S)-4-aminocyclohexyl)-3-(1-benzyl-1H-indol-3-yl)-3-(3-methoxyphenyl) propanamide hydrochloride salt] | 195 µM | 33 µg/mL | 133 µg/mL |
| COc1cc(OC)cc(C(CC(=O)N[C@H]2CC[C@H](N)CC2)c2cn(CC3CCCCC3)c3ccccc23)c1.Cl (stereo partly drawn) [Compound 127, N-((1R,4R)-4-aminocyclohexyl)-3-(1-(cyclohexylmethyl)-1H-indol-3-yl)-3-(3,5-dimethoxyphenyl) propanamide hydrochloride salt] | 19 µM | 512 µg/mL | > 512 µg/mL |
| NC1CCC(NC(=O)CC(c2cnc3ccccc3c2)c2cn(CC3CCCCC3)c3ccccc23)CC1 [Compound 142, N-((1S,4S)-4-aminocyclohexyl)-3-(1-(cyclohexylmethyl)-1H-indol-3-yl)-3-(quinolin-3-yl)propanamide hydrochloride salt] | 44 µM | 8 µg/mL | 32 µg/mL |
| Cc1cccc(C(CC(=O)NCC2CNCCO2)c2cn(CC3CCCCC3)c3ccc(Br)cc23)c1.Cl (stereo not drawn) [Compound 281, 3-(5-bromo-1-(cyclohexylmethyl)-1H-indol-3-yl)-N-(morpholin-2-ylmethyl)-3-(m-tolyl)propanamide hydrochloride salt] | 168 µM | 19 µg/mL | > 512 µg/mL |
